Patent US6432433B1, “Liquid biocidal composition of a formaldehyde adduct and an isothiazolone and method of use” (ISP Investments Inc., priority 2000, dated 2002)
Values joined by “and” are separate entries in the source; they are usually repeats but may differ in a detail not shown here. Equal entries are not always repeated. Where two headings read alike, the source gives them in different places.

Columns and labels:
Assay type in all cases: cell-based
[1] = system: mixed culture of P. aeruginosa, E. cloacae, B. subtilis, B. megaterium and B. licheniformis; test: In-can preservation of latex paint (ASTM D2574-97), two challenges; conditions: polyvinyl acrylic paint, 32° C., mixed inoculum, rechallenged after 7 days
Procedure: The efficacy of each individual compound or their combination was measured in a latex paint artificially contaminated with a mixed inoculum. The microbiological evaluations shown as examples, are based on ASTM D2574-97, “Resistance of emulsion paints in the container to the attack of microorganisms”. Briefly, paint samples (e.g. polyvinyl acrylic, PCL 717) were prepared to contain different concentrations of each compound or their mixtures in different concentrations and ratios. Each paint sample thus prepared was then inoculated with a mixed culture of P. aeruginosa, E. cloacae, B. subtilis, B. megaterium and B. licheniformis (final concentration of about 10^6 CFU/ml) and rechallenged after 7 days (final concentration of about 10^7 CFU/ml). Paint samples were incubated at 32° C. for the duration of the test and sampled for the presence of viable bacteria on TSA plates. A paint sample was considered appropriately preserved if no bacterial growth was detected after six days in both challenge assays. […]
1. The end-point activity in ppm obtained when no viable bacteria was detected after both challenges in a paint sample containing the compound A alone (QA), for compound A in the mixture (Qa), for compound B alone (QB) or for compound B in the mixture (Qb). […]
3. The calculated Synergy Index (SI), as described above

[2] = system: Staphylococcus aureus (ATCC 6538); test: MIC on Tryptic Soy Agar; conditions: S. aureus; TSA, 32° C., 48 hours
Procedure: (§1) The agar was inoculated to contain about 1×10^6 CFU/ml bacterial cells or fungal spores.
(§2) The MIC were taken as end points of activity. End points for the mixture of NMPFA (DMO, MBO or HMAE) and BIT were then compared with the end points for the pure active compound when employed individually.
(§3) Synergism was determined by a commonly used method described by Kull, A. C., Eisman, P. C, Sylwestrowicz ,H., D. and Mayer, R. L. (1961). Applied Microbiology, 9:538 using the ratio determined by:
(§4) Qa/QA+Qb/QB=Synergy Index (SI)
(§5) where QA is the concentration of the formaldehyde adduct in parts per million (ppm), acting alone, which produced an end point. Qa is the concentration of the formaldehyde adduct in ppm, in the mixture, which produced an end point. QB is the concentration of BIT in ppm, acting alone, which produced an end point and Qb is the concentration of BIT in ppm, in the mixture, which produced an end point.
(§6) When the sum of Qa/QA+Qb/QB is greater than one, antagonism is indicated. When the sum is equal to one, additivity is indicated.

[3] = system: Enterobacter cloacae (ATCC 13047); test: MIC on Tryptic Soy Agar; conditions: E. cloacae; TSA, 32° C., 48 hours
Procedure: as §1, §2, §3, §4, §5, §6

[4] = system: Bacillus subtilis (ATCC 27328); test: MIC on Tryptic Soy Agar; conditions: for MIC: Bacillus subtilis, read-out: MIC end point, compound alone (QA / QB)
Procedure: as §1, §2, §3, §4, §5, §6

[5] = system: Pseudomonas aeruginosa (ATCC 10145); test: MIC on Tryptic Soy Agar; conditions: P. aeruginosa; TSA, 32° C., 48 hours
Procedure: as §1, §2, §3, §4, §5, §6

[6] = system: Escherichia coli (ATCC 11229); test: MIC on Tryptic Soy Agar; conditions: E. coli; TSA, 32° C., 48 hours
Procedure: as §1, §2, §3, §4, §5, §6

[7] = system: Aureobasidium pullulans (ATCC 9348); test: MIC on Potato Dextrose Agar; conditions: A. pullulans; PDA, 28°, 7-10 days
Procedure: as §1, §2, §3, §4, §5, §6

[8] = system: Gliocladium virens (ATCC 9645); test: MIC on Potato Dextrose Agar; conditions: for MIC: Trichoderma virens
Procedure: as §1, §2, §3, §4, §5, §6

[9] = system: Chaetomium globosum (ATCC 6205); test: MIC on Potato Dextrose Agar; conditions: C. globosum; PDA, 28°, 7-10 days
Procedure: as §1, §2, §3, §4, §5, §6

[10] = system: Penicillium funiculosum (ATCC 11797); test: MIC on Potato Dextrose Agar; conditions: P. funiculosum; PDA, 28°, 7-10 days
Procedure: as §1, §2, §3, §4, §5, §6

[11] = system: Aspergillus niger (ATCC 6275); test: MIC on Potato Dextrose Agar; conditions: A. niger; PDA, 28°, 7-10 days
Procedure: as §1, §2, §3, §4, §5, §6

[12] = B. subtilis, TSA, 32° C., 48 hours

MIC ([4]; ATCC27328, B. subtilis, TSA, 32° C., 48 hours)	MIC ([8]; ATCC9645, G. virens, PDA, 28°, 7-10 days, read-out: MIC end point, compound alone (QA / QB))	SMILES	End-point activity (no viable bacteria detected after both challenges), compound alone (QA / QB) [1]	MIC end point, compound alone (QA / QB) [2]	MIC end point, compound alone (QA / QB) [3]	MIC end point, compound alone (QA / QB) [4, 12]	MIC end point, compound alone (QA / QB) [5]	MIC end point, compound alone (QA / QB) [6]	MIC end point, compound alone (QA / QB) [7]	MIC end point, compound alone (QA / QB) ([8]; G. virens, PDA, 28°, 7-10 days)	MIC end point, compound alone (QA / QB) [9]	MIC end point, compound alone (QA / QB) [10]	MIC end point, compound alone (QA / QB) [11]	MIC ([4]; ATCC27328, 48 h)	MIC ([8]; ATCC9645, read-out: MIC end point, compound alone (QA / QB))
		O=c1[nH]sc2ccccc12 [BIT, 1,2-benzisothiazolin-3-one, reference compound]	170.0 ppm	50 ppm	2500 ppm	25.0 ppm and 25 ppm	250.0 ppm	50.0 ppm	50 ppm	100 ppm	250 ppm	25 ppm	250 ppm		
385 µg/mL	770 µg/mL	CC1(C)COCN1 [DMO, 4,4-dimethyloxazolidine]													
		OCCNCO [HMAE, 2-[(hydroxymethyl)amino]ethanol]												250 µg/mL	1000 µg/mL
		CC(O)CN(C)CC(C)OCO (centres unmarked) [NMPFA, N-methyl-2-hydroxymethyleneoxypropyl-2′-hydroxypropylamine]	1,000 ppm	1,000 ppm	1,000 ppm	500 ppm	1,000 ppm	1,000 ppm	500 ppm	>2,000 ppm	>2,000 ppm	250 ppm	1,000 ppm		
